ChEMBL document CHEMBL3616452 (Eur J Med Chem, 2015)
Active and inactive are the calls of the source. The calls are words filed in the database; no cut-off is given here.

How the values were obtained:
[1] = Antiviral activity against Influenza A virus (A/WSN/1933(H1N1)) assessed as virus-mediated cytopathic effect in MDCK cells after 48 to 72 hrs; type: functional, cell-based
MDCK [2] = experiment: Inhibition of nucleoprotein synthesis in Influenza A virus (A/WSN/1933(H1N1)) infected in MDCK cells at 3.0 uM by immunofluorescence assay; type: functional, cell-based
MDCK [3] = experiment: Inhibition of nucleoprotein synthesis in Influenza A virus (A/WSN/1933(H1N1)) infected in MDCK cells at 15.0 uM by immunofluorescence assay; type: functional, cell-based
[4] = Antiviral activity against wild-type Influenza A virus (A/WSN/1933(H1N1)) assessed as virus-mediated cytopathic effect in MDCK cells; type: functional, cell-based
MDCK [5] = experiment: Inhibition of nucleoprotein synthesis in Influenza A virus (A/WSN/1933(H1N1)) infected in MDCK cells at 10.0 uM dosed post-infection by fluorescence analysis; type: functional, organism-based
Nucleoprotein = Nucleoprotein (Influenza A virus (strain A/Wilson-Smith/1933 H1N1), UniProt P15682); experiment: Binding affinity to Influenza A virus (A/WSN/1933(H1N1)) nucleoprotein transfected in 293T cells assessed as inhibition of RNA dependent RNA polymerase activity; type: cell-based
MDCK [6] = experiment: Inhibition of nucleoprotein synthesis in Influenza A virus (A/WSN/1933(H1N1)) infected in MDCK cells by fluorescence analysis; type: functional, cell-based
MDCK [7] = experiment: Inhibition of nucleoprotein synthesis in Influenza A virus (A/WSN/1933(H1N1)) infected in MDCK cells at 0.3 uM dosed 0.5 hrs post infection by fluorescence analysis; type: functional, organism-based
MDCK [8] = experiment: Inhibition of nucleoprotein synthesis in Influenza A virus (A/WSN/1933(H1N1)) infected in MDCK cells at 1.0 uM dosed 0.5 hrs post infection by fluorescence analysis; type: functional, organism-based
MDCK [9] = experiment: Inhibition of nucleoprotein synthesis in Influenza A virus (A/WSN/1933(H1N1)) infected in MDCK cells at 0.3 and 1 uM dosed > 0.5 hrs post infection by fluorescence analysis; type: functional, organism-based
MDCK [10] = experiment: Antiviral activity against wild-type Influenza A virus (A/WSN/1933(H1N1)) assessed as virus-mediated cytopathic effect in MDCK cells at 0.3 uM; type: functional, cell-based

Chain of Nucleoprotein (P15682 whole entry): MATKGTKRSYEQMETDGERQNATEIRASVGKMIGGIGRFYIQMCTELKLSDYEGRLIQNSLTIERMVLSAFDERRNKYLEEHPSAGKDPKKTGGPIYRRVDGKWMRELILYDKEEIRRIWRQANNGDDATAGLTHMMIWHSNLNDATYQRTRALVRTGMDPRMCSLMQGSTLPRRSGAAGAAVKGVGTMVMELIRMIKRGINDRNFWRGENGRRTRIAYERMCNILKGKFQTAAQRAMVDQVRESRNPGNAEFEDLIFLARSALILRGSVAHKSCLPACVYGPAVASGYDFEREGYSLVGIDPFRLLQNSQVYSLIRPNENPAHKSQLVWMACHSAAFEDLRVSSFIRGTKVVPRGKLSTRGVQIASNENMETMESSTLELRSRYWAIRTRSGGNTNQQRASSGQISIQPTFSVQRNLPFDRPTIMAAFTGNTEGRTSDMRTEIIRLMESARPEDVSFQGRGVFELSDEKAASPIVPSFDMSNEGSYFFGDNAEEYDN

Structure (SMILES) | EC50 [1] [µM] | also measured
Cn1c(=O)c2c(-c3ccccc3)n3c(c2n(C)c1=O)C(c1cccs1)OCC3(C)C (centres undefined) | 6.8 | –
Cn1c(=O)c2c(-c3ccccc3)n3c(c2n(C)c1=O)C(c1ccc(C(F)(F)F)cc1)OCC3(C)C (centres undefined) | > 50 | –
Cn1c(=O)c2c(-c3ccccc3)n3c(c2n(C)c1=O)C(C1CCCC1)OCC3 (centres undefined) | > 50 | –
Cn1c(=O)c2c(-c3ccccc3)n3c(c2n(C)c1=O)C(c1ccccc1)OCC3(C)C (centres undefined) | 5.4 | –
Cn1c(=O)c2c(-c3ccccc3)n3c(c2n(C)c1=O)C(c1ccccc1F)OCC3 (centres undefined) | > 50 | –
Cn1c(=O)c2c(-c3ccccc3)n3c(c2n(C)c1=O)C(c1ccccc1F)OCC3(C)C (centres undefined) | 1 | inhibition (MDCK [2]): inactive; inhibition (MDCK [3]): Active; EC50 [4]: 2.3 µM; inhibition (MDCK [5]): Active; IC50 (Nucleoprotein): 4.9 µM; inhibition (MDCK [6]; TDE = time-dependent effect): tde
Cn1c(=O)c2c(-c3ccccc3)n3c(c2n(C)c1=O)C(c1ccccc1)OCC3 (centres undefined) | > 50 | –
Cn1c(=O)c2c(-c3ccccc3)n3c(c2n(C)c1=O)C(C1CCCCC1)OCC3(C)C (centres undefined) | > 50 | –
Cn1c(=O)c2c(-c3ccccc3)n3c(c2n(C)c1=O)C(C1CCCCC1)OCC3 (centres undefined) | > 50 | –
Cn1c(=O)c2c(-c3ccccc3)n3c(c2n(C)c1=O)C(c1ccco1)OCC3 (centres undefined) | > 50 | –
CCCC1OCCn2c(-c3ccccc3)c3c(=O)n(C)c(=O)n(C)c3c21 (centres undefined) | > 50 | –
Cn1c(=O)c2c(-c3ccccc3)n3c(c2n(C)c1=O)C(c1cccs1)OCC3 (centres undefined) | > 50 | –
Cn1c(=O)c2c(-c3ccccc3)n3c(c2n(C)c1=O)C(c1ccccc1Cl)OCC3 (centres undefined) | > 50 | –
Cn1c(=O)c2c(-c3ccccc3)n3c(c2n(C)c1=O)C(c1ccccc1Cl)OCC3(C)C (centres undefined) | 8 | –
Cc1onc(-c2ccccc2Cl)c1C(=O)N1CCN(c2ccc([N+](=O)[O-])cc2)CC1 | – | inhibition (MDCK [7]): Active; inhibition (MDCK [8]): Active; inhibition (MDCK [9]): inactive; IC50 (Nucleoprotein): 0.23 µM; Activity (MDCK [10]): Active; inhibition (MDCK [6]): Active
CCCn1c(=O)c2c(-c3ccccc3)n3c(c2n(CCC)c1=O)C(C1CCCCC1)OCC3 (centres undefined) | > 50 | –
Cn1c(=O)c2c(-c3ccccc3)n3c(c2n(C)c1=O)C(c1ccc(Br)o1)OCC3 (centres undefined) | > 50 | –
COc1ccc(C2OCC(C)(C)n3c(-c4ccccc4)c4c(=O)n(C)c(=O)n(C)c4c32)cc1 (centres undefined) | > 50 | –
